What was measured:
MOLT-4 = experiment: Antiproliferative activity against human MOLT4 cells after 48 hrs; assay type: functional; conditions: MOLT-4, 48 h
NCI = experiment: Growth inhibition of human NCI DTP 60 cells; assay type: functional
Plasmodium falciparum [1] = experiment: Antimalarial activity against Plasmodium falciparum TM91C235; assay type: functional, organism-based
786-0 = experiment: Antiproliferative activity against human 786-0 cells after 48 hrs; assay type: functional; conditions: Homo sapiens, 786-0, 48 h; for CC50: read-out: LC50 (the source's name)
Plasmodium falciparum [2] = experiment: Antimalarial activity against Plasmodium falciparum W2; assay type: functional, organism-based
Plasmodium falciparum [3] = experiment: Antimalarial activity against Plasmodium falciparum D6; assay type: functional, organism-based
NCI-H460 = experiment: Antiproliferative activity against human NCI-H460 cells after 48 hrs; assay type: functional; conditions: NCI-H460, 48 h
DU-145 = experiment: Antiproliferative activity against human DU145 cells after 48 hrs; assay type: functional; conditions: DU-145, 48 h
LOX IMVI = experiment: Antiproliferative activity against human LOX IMVI cells after 48 hrs; assay type: functional
HOP-92 = experiment: Antiproliferative activity against human HOP92 cells after 48 hrs; assay type: functional; conditions: Homo sapiens, HOP-92, 48 h
CAKI-1 = experiment: Antiproliferative activity against human CAKI1 cells after 48 hrs; assay type: functional; conditions: CAKI-1, 48 h
UO-31 = experiment: Antiproliferative activity against human UO31 cells after 48 hrs; assay type: functional; conditions: Homo sapiens, UO-31, 48 h
A549 = experiment: Antiproliferative activity against human A549 cells after 48 hrs; assay type: functional; conditions: A549, 48 h
HL-60 = experiment: Antiproliferative activity against human HL60 cells after 48 hrs; assay type: functional
CCRF-CEM = experiment: Antiproliferative activity against human CCRF-CEM cells after 48 hrs; assay type: functional
[4] = read-out: LC50 (the source's name)

SMILES | GI50 (NCI; Homo sapiens, NCI) [µM] | GI50 (786-0) [µM] | TGI (786-0) [µM] | CC50 (786-0) [µM] | IC50 (Plasmodium falciparum [1]) [µM] | IC90 (Plasmodium falciparum [1]) [µM] | GI50 (LOX IMVI; Homo sapiens, LOX IMVI, 48 h) [µM] | LC50 (concentration killing 50% of cells) (LOX IMVI; Homo sapiens, LOX IMVI, 48 h) [µM] | TGI (LOX IMVI; Homo sapiens, LOX IMVI, 48 h) [µM] | GI50 (HOP-92) [µM] | LC50 (concentration killing 50% of cells) (HOP-92) [µM] | TGI (HOP-92) [µM] | GI50 (UO-31) [µM] | TGI (UO-31) [µM] | IC50 (Plasmodium falciparum [2]) [µM] | IC90 (Plasmodium falciparum [2]) [µM] | IC50 (Plasmodium falciparum [3]) [µM] | IC90 (Plasmodium falciparum [3]) [µM] | LC50 (UO-31) [µM] | other results
CC(=O)O[C@H]1C[C@H]2[C@@H](CC[C@@H]3CC4(CC[C@@]32C)OOC2(CCCCC2)OO4)[C@@H]2CC[C@H]([C@H](C)CCC(=O)NCCN(C)C)[C@@]12C | < 0.01 | 0.159 | 0.298 | 0.559 | – | – | – | – | – | – | – | – | – | – | – | – | – | – | – | GI50 (MOLT-4): < 0.01 µM; TGI (MOLT-4): > 100 µM; IC50 (Plasmodium falciparum [1]; Plasmodium falciparum, TM91C235): 0.221 µM; IC50 (Plasmodium falciparum [2]; Plasmodium falciparum, W2): 0.105 µM; IC90 (Plasmodium falciparum [2]; Plasmodium falciparum, W2): 0.276 µM; IC50 (Plasmodium falciparum [3]; Plasmodium falciparum, D6): 0.221 µM; GI50 (NCI-H460): 0.536 µM; TGI (NCI-H460): 1.9 µM; CC50 (NCI-H460; [4]): 4.7 µM
CCCNC(=O)CC[C@@H](C)[C@H]1CC[C@H]2[C@@H]3CC[C@@H]4CC5(CC[C@]4(C)[C@H]3C[C@H](OC(C)=O)[C@]12C)OOC1(CCC(C)CC1)OO5 (stereo in doubt; 15) | 0.062 | – | – | – | 0.0341 | 0.0507 | 0.116 | 1.68 | 0.391 | 0.134 | 4.53 | 0.873 | 0.122 | 0.329 | 0.0338 | 0.0537 | 0.0293 | 0.0393 | – | GI50 (DU-145): 0.663 µM; LC50 (concentration killing 50% of cells) (DU-145): 3.91 µM; TGI (DU-145): 1.61 µM; GI50 (CAKI-1): 0.0622 µM; TGI (CAKI-1): 0.163 µM; CC50 (CAKI-1; [4]): 0.429 µM
CC(=O)O[C@H]1C[C@H]2[C@@H]([C@H](OC(C)=O)C[C@@H]3CC4(CC[C@@]32C)OOC2(CCC(C)CC2)OO4)[C@@H]2CC[C@H]([C@H](C)CCC(=O)Nc3ccccc3)[C@@]12C (stereo in doubt; 21) | 0.18 | – | – | – | 0.0272 | 0.0697 | – | – | – | 0.266 | 8.84 | 0.766 | 0.222 | 0.487 | 0.0231 | 0.0546 | 0.0198 | 0.0292 | > 10 | GI50 (A549): 0.255 µM; TGI (A549): 0.664 µM; GI50 (LOX IMVI): 0.181 µM; LC50 (concentration killing 50% of cells) (LOX IMVI): 0.758 µM; TGI (LOX IMVI): 0.37 µM
CC1CCC2(CC1)OOC1(CC[C@@]3(C)[C@H](CC[C@@H]4[C@@H]3C[C@H](O)[C@]3(C)[C@@H]([C@H](C)CCC(=O)NCCN(C)C)CC[C@@H]43)C1)OO2 (stereo in doubt; 16a) | – | 0.626 | 2.04 | 5.43 | – | – | 0.184 | 0.774 | 0.378 | 0.228 | 0.973 | 0.471 | 0.206 | 0.421 | – | – | – | – | 0.864 | GI50 (NCI): 0.015 µM; TGI (HL-60): 1.01 µM; GI50 (HL-60; Homo sapiens, HL-60, 48 h): 0.377 µM; CC50 (HL-60; [4]): 6.09 µM; LC50 (concentration killing 50% of cells) (CCRF-CEM): > 10 µM; GI50 (CCRF-CEM; Homo sapiens, CCRF-CEM, 48 h): 0.257 µM; TGI (CCRF-CEM; Homo sapiens, CCRF-CEM, 48 h): 0.539 µM

From ChEMBL document CHEMBL1148828, “Deoxycholic acid-derived tetraoxane antimalarials and antiproliferatives(1)” (J Med Chem, 2007)
